According to PubChem BioAssay (NCI):
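1) Cells in 96-well plates. 2) Compound, 48 h, 5 concentrations. 3) Linear interpolation between surrounding doses. 4) Unreached endpoint = highest concentration. TGI: total growth inhibition.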

Experiments:
Assay in all cases: growth of human tumour cells (NCI), 48 h
[1] = test system: BT-549 breast
[2] = test system: HOP-92 NSCLC
[3] = test system: MCF7 breast
[4] = test system: MDA-MB-435
[5] = test system: OVCAR-4 ovarian
[6] = test system: SK-MEL-28 melanoma
[7] = test system: SK-OV-3 ovarian
[8] = test system: SN12C renal
[9] = test system: SNB-75 CNS
[10] = test system: SR leukemia

SMILES	TGI [1] [µM]	TGI [2] [µM]	TGI [3] [µM]	TGI [4] [µM]	TGI [5] [µM]	TGI [6] [µM]	TGI [7] [µM]	TGI [8] [µM]	TGI [9] [µM]	TGI [10] [µM]
O=C(c1ccccc1)c1ccc2nc(-c3c(Cl)c(Cl)c(Cl)c(Cl)c3-c3nnc(-c4ccccc4)o3)[nH]c2c1	> 100	> 100	> 100	> 100	> 100	> 100	> 100	81.7	84.4	50.2
COc1ccc(C#Cn2nnc3ccccc32)cc1	> 100	> 100	> 100	> 100	> 100	> 100		> 100		> 100
Cc1cccc2c(N)c3cccc(C(=O)NCC[N+](C)(C)Cc4ccc([N+](=O)[O-])s4)c3nc12	> 70.5	68.8	> 51.9	> 63.9	25.1	> 100	> 75.9	49	43.8	5.7
Clc1sc(Cl)c2c1[C@@H](Cl)C[C@@H]2Cl	> 100	> 100	> 100	> 100	> 100	> 100	> 100	> 100	> 100	> 100
CC(=O)n1cc(C2CC23N=C(c2ccccc2)OC3=O)c2ccccc21 (centres undefined)	30.3	52.5	42.9	72.9	42.4	45.6	> 100	31.9	39.6	40.3
Cn1cccc1-c1ccc(-c2ccc(CO)[se]2)[se]1	> 78.5	> 100	> 40	18.7	53.8	> 100	> 78.3	> 100	59.5	56.9
CC(=O)O[C@H]1CC[C@@]2(C)C(=CC[C@@H]3[C@@H]2CC[C@]2(C)C(=N/O)/C(=C\c4ccccc4)C[C@@H]32)C1	> 100	88.5	> 100	> 33.1	> 100	> 56.3	> 100	38.1	> 100	> 42.3
C/C=C(\C)C(=O)OC1CC(OC(C)=O)C2(C(=O)OC)COC3C2C1(C)C1C2(C(=O)OC)OCC1(C3O)C1(O)C3CC(C4(O)C=COC4O3)C1(C)O2 (centres undefined)	> 100	> 100	> 100	> 100	> 100	> 100	> 100	> 100	> 100	> 100
Cc1cc(S(=O)(=O)Nc2nc3ncccc3[nH]2)c(S)cc1Cl	> 100	> 100	> 100	> 100	> 100	> 100	> 100	> 100	> 100	> 100
NS(=O)(=O)c1nc(S(=O)(=O)O)c2[nH]cnc2n1	> 100	> 100	> 100	> 100	> 100	> 100	> 100	> 100	> 100	> 100
COc1cc2cc(C(=O)N3CC(COS(C)(=O)=O)c4ccc(NC(=O)OCc5ccccc5)cc43)[nH]c2c(OC)c1OC (centres undefined)	> 100	> 100	> 100	> 100	> 100	> 100	> 100	> 100	> 100	> 100
C(/C=N/NC1=NCCCCN1)=N\NC1=NCCCCN1	> 100	> 100	> 100	> 100	> 100	> 100	> 100	> 100	> 100	> 100
C=C(C(=O)O[C@H]1C/C(C)=C/CC/C(CO)=C/[C@H]2C(=O)OC(=C)[C@H]12)C(O)CO (some centres undefined)	30.2	31.4	25.6	26.3	46.9	30.8	35.1	30.6	34.9	6.81
C[C@@H]1[C@@H](C)C(c2ccccc2)O[Si]1(C(C)(C)C)C(C)(C)C (some centres undefined)	57.1	38.8	31.9	76.3	> 86.1	> 66.7	> 69.3	31.3	29.9	29.3
COC(=O)C1CC2(C)C=CC1N(C(=O)OCc1ccccc1)C2 (centres undefined)	> 100		> 100	> 100	> 100	> 100	> 100	> 100	> 100	> 100
COc1ccc(-n2c(=O)c3[nH]c(=S)[nH]c3n(-c3ccc(OC)cc3)c2=S)cc1	> 100	> 100	> 100	> 100	> 100	> 100	> 100	> 100	> 100	> 100

SMILES	TGI [1] [µM]	TGI [2] [µM]	TGI [3] [µM]	TGI [4] [µM]	TGI [5] [µM]	TGI [6] [µM]	TGI [7] [µM]	TGI [8] [µM]	TGI [9] [µM]	TGI [10] [µM]
O=C1c2cc(Cc3ccccc3)c(=O)c(Cc3ccccc3)cc2C(=O)c2cc(Cc3ccccc3)c(=O)c(Cc3ccccc3)cc21	> 100	> 100	> 100	> 100	> 100	> 100		> 100	> 100	> 100
Cc1cc(C)c2c(c1)CC1(Cc3cc(C)c(C)cc3C1=O)C2=O (centres undefined)	> 100	> 100	> 100	> 100	> 100	> 100		> 100	> 100	> 100
CCCCc1ccc(Nc2ncc3ncn(COCCO)c3n2)cc1	> 100	92.8	> 100	87.5	> 100		> 100	> 100	65.3	52.5
O=C1NC(=O)c2ccccc2/C1=C/c1ccc2c(c1)OCO2	50.8	> 100	> 100	50.1	> 100		> 100	47.1	86.6	> 100
COC(=O)C1=C(OC(=O)/C(=C/c2ccccc2)c2ccc(OC)cc2)C(C(=O)OC)[C@@]2(O)[C@@H](C(=O)OC)[C@H](C)C[C@@H]1[C@@H]2C(=O)OC (some centres undefined)	> 100		> 100	> 100	> 100	> 100	> 100	> 100	> 100	> 100
N#CC(CCN1CCC(Nc2ccccc2)(c2nnnn2C2CCCCC2)CC1)(c1ccccc1)c1ccccc1	> 100		> 100	> 100	> 100	> 100	> 100	> 100	> 100	> 100
C#C[C@]1(O)CC[C@H]2[C@@H]3CCC4=C/C(=N/NC(=O)c5cccc6c(=O)c7ccccc7[nH]c56)CCC4[C@H]3CC[C@@]21C (some centres undefined)	63.3	> 100	> 100	> 100	> 100		> 100	> 100	> 100	> 100
Cc1ccc(S(=O)(=O)NC(CCC(=O)NNc2ccccc2)C(=O)NNc2ccccc2)cc1 (centres undefined)	> 100	> 100	> 100	> 100	99.2		> 100		> 100	> 100
O=c1[nH]c(=O)n(C2CC(O)C(CO)O2)cc1Oc1ccccc1 (centres undefined)	> 100		> 100	> 100	> 100	> 100	> 100	> 100	> 100	> 100
CC(C)(C)OC(=O)N/C(C=O)=C\C1CCCCC1	70.6		72.8	49.5	97.8	> 100	> 100	42.1	> 100	42.8
COc1cccc(N=N/C(=N/NC(=O)c2ccc(C)cc2)c2ccc(N(CCC#N)CCC#N)cc2OC)c1	> 100	> 100	> 100	> 100	> 100	> 100	> 100	> 100		> 100
N#CC1(C#N)C(C#N)(C#N)C1(C#N)C(N)=O	> 100	> 100	> 100	> 100	> 100	> 100	> 100	> 100		> 100
Cc1ccc(S(=O)(=O)N2C[C@@H]3CC[C@]4(CO[Si](C)(C)C(C)(C)C)N[C@@H](c5ccccc5)[C@H]2[C@H]34)cc1	87.8	28.7	> 100	> 100	> 100	> 100	> 100	76.2		> 100
CC(C)(C)OC(=O)NC12C3C4C1C1C2C3C41NC(=O)OC(C)(C)C (centres undefined)	> 100	> 100	95.9	> 100	> 100	> 100		> 100		> 100
CCN1C/C(=C\c2ccc(Cl)cc2)c2nc(N)c(C#N)c(-c3ccc(Cl)cc3)c2C1	> 100		> 100	> 100	> 100	> 100	> 100		> 100	> 100
